Target: T1, hyaluronidase
T1 construct: gene SPAM1; bovine testicular enzyme is the usual preparation
Assay: turbidimetric assay with CTAB, […] nm
Format: biochemical
Conditions: hyaluronic acid substrate, acetate buffer pH 4.5, 37 °C, 45 min

Inhibition of hyaluronidase activity / Positive control: 509.79 µg/mL
Structure (SMILES): O=c1c(O)c(-c2ccc(O)c(O)c2)oc2cc(O)cc(O)c12 [quercetin (dihydrate)]

From article PMC8043927, “Mycelial culture extracts of selected wood-decay mushrooms as a source of skin-protecting factors” (Biotechnology Letters, 2021)
